Results as given in article PMC12700550, “DLL4^+ neutrophils promote Notch1-mediated endothelial PANoptosis to exacerbate acute lung injury in sepsis” (The Journal of Clinical Investigation, 2025).
“And” between values parts separate entries of the source, which are not always exact repeats. Identical values can stand only once.

Experiments:
[1] = target: T1, rmNotch1 (Mus musculus, UniProt Q01705); assay: BIAcore assay (surface plasmon resonance), rmDLL4 to immobilized rmNotch1; format: binding, murine; details: 1 μg/mL NDI
T1 construct: purchased R&D Systems 5267-TK (rmNotch1); 1389-D4-050/CF (rmDLL4)
Protocol: To determine rmDLL4’s direct interaction with rmNotch1, surface plasmon resonance (OpenSPR, Nicoya) was performed. High-sensitivity nitrilotriacetic acid (HS-NTA) sensors were used. Binding reactions were performed in running buffer (PBS, 0.005% P20, pH 7.4). The HS-NTA sensor was first cleaned by injection with 10 mM HCl (150 μL) followed by injection of 150 μL of 350 mM EDTA. […] For the effect of NDI efficacy on rmDLL4 binding to rmNotch1, the same HS-NTA sensor was used. rmDLL4 at all the concentrations used for binding with rmNotch1 was preincubated with 1 μg/mL NDI for 30 minutes at room temperature, and then the complexes were injected to channels 1 and 2. Binding reactions were carried out with the same running buffer at a flow rate of 40 μL/min at 20°C. Channel 1 was used as a control to evaluate nonspecific binding. The real-time interaction data were analyzed by Trace Drawer (Nicoya). The signals from channel 1 were subtracted from channel 2 coated with the ligand for all samples. Data were globally fitted for 1:1 binding (one-to-one model).

[2] = test system: C57BL/6 mice, CLP sepsis; assay: Evans blue dye lung extravasation, CLP mice; format: in vivo, mouse; details: 20 h; for Evans blue dye, EBD/dry lung tissue (Figure 6L): 10 mg/kg NDI, EBD 20 mg/kg, individual mice
Protocol: Sepsis was induced in mice by cecal ligation and puncture (CLP) as described previously ([45], [46]). Mice were anesthetized with isoflurane to a surgical plane and placed in a supine position. CLP was performed through a midline laparotomy. The abdomen was shaved and disinfected. Through a 2 cm midline incision, the cecum was exposed and then ligated with a 4-0 silk suture 1 cm proximal from the distal cecal extremity. […] A small amount of cecal content was extruded through both holes, and the ligated cecum was returned to the peritoneal cavity. The wound was closed in layers. […] A small amount of cecal content was extruded. […] Vehicle groups received an equivalent volume of PBS, while treatment groups received NDI 10 mg/kg in […] PBS via retro-orbital injection after CLP. This dose was chosen primarily on the basis of our laboratory’s prior experience, we have consistently used this dose in mouse CLP models with reproducible efficacy and without observable toxicity ([39], [44]). Sham-operated animals underwent a laparotomy without CLP. After closure, the mice received a subcutaneous injection of 0.5 mL of normal saline to overcome surgery-induced dehydration. […] All mice were subcutaneously injected with a single dose of 0.1 mg/kg buprenorphine after CLP. Lung vascular leakage was quantified using the Evans blue dye–labeled (EBD-labeled) albumin extravasation assay ([48]). […] Sigma-Aldrich) via retro-orbital injection. […] The whole lung was dehydrated for 48 hours at 60°C, immersed in formamide (1 mL/g wet weight; Sigma-Aldrich) at 37°C for 48 hours, and centrifuged at 5,000g for 30 minutes. The amount of extracted EBD in the supernatant was quantified by spectrophotometry. The concentration of extravasated EBD-albumin in lung homogenates was expressed as nanograms EBD per milligram of dry lung tissue. Lung water content was calculated as (wet weight – dry weight)/wet weight %.

[3] = test system: KC; assay: Lung keratinocyte chemoattractant (KC) mRNA, CLP mice; format: in vivo, mouse; details: 20 h; for lung KC mRNA (Figure 6H): 10 mg/kg NDI, vs sham, individual mice
Protocol: Sepsis was induced in mice by cecal ligation and puncture (CLP) as described previously ([45], [46]). Mice were anesthetized with isoflurane to a surgical plane and placed in a supine position. CLP was performed through a midline laparotomy. The abdomen was shaved and disinfected. Through a 2 cm midline incision, the cecum was exposed and then ligated with a 4-0 silk suture 1 cm proximal from the distal cecal extremity. For 20-hour CLP experiments, the cecum was punctured twice with a 22-gauge needle. A small amount of cecal content was extruded through both holes, and the ligated cecum was returned to the peritoneal cavity. The wound was closed in layers. For 10-day sepsis survival studies, the cecum was punctured once with a 22-gauge needle. A small amount of cecal content was extruded. Mice were allocated to the vehicle and adoptive transfer of DLL4^+ neutrophils or DLL4^– neutrophils groups. Adoptive transfer mice received a retro-orbital injection of 1 × 10^6 cells per mouse DLL4^+ neutrophils or DLL4^– neutrophils in […] phosphate-buffered saline (PBS) immediately after abdominal closure in both the 20-hour experiments and the survival study. Vehicle groups received an equivalent volume of PBS, while treatment groups received NDI 10 mg/kg in […] PBS via retro-orbital injection after CLP. This dose was chosen primarily on the basis of our laboratory’s prior experience, we have consistently used this dose in mouse CLP models with reproducible efficacy and without observable toxicity ([39], [44]). Sham-operated animals underwent a laparotomy without CLP. After closure, the mice received a subcutaneous injection of 0.5 mL of normal saline to overcome surgery-induced dehydration. For 20-hour experiments, animals were not injected with antibiotics; however, for survival studies, animals were given 0.5 mg per kg body weight imipenem (lot 4D21K05, WG Critical Care LLC) subcutaneously in 0.5 mL saline once at the end of CLP. All mice were subcutaneously injected with a single dose of 0.1 mg/kg buprenorphine after CLP. […]

[4] = DLL4^+ neutrophil-injected CLP mice, 10 mg/kg

T1 sequence (Q9JI71 28-525 partner limits assumed): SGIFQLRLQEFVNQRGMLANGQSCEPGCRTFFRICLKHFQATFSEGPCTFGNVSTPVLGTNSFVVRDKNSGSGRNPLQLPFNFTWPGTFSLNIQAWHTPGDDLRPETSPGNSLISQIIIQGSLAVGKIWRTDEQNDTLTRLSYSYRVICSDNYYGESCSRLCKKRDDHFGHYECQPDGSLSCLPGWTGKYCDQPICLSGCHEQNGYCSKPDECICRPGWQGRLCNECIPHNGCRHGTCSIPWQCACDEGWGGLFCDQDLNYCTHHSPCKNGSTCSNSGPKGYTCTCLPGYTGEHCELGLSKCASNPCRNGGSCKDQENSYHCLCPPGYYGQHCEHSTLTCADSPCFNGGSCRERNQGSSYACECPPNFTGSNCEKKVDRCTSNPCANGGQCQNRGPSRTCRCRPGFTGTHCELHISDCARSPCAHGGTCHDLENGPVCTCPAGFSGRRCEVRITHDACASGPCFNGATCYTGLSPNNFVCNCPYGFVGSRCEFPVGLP
T1 sequence (Q01705 with tags, fused parts or gaps limits assumed): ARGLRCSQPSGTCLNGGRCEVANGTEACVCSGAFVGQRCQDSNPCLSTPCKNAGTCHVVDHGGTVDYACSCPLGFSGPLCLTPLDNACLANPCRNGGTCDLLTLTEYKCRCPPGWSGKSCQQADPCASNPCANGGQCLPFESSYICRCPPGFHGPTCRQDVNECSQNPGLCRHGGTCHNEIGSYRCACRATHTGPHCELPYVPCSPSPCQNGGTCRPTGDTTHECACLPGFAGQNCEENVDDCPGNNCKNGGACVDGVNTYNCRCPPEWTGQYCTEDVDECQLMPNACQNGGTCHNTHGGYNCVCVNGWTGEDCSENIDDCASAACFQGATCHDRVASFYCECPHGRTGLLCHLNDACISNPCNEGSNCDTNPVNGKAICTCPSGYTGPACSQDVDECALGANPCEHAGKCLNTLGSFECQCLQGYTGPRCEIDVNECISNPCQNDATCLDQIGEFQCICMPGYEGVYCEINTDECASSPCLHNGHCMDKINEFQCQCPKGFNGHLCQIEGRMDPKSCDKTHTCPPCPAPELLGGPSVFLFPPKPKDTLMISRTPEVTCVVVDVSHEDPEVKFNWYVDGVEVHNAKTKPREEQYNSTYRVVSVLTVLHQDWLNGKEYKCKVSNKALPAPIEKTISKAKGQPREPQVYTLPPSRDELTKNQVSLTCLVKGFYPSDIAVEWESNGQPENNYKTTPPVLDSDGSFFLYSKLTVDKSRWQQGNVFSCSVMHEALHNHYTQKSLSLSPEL

Sequence: ECAGSPCHNGGTCEDGI [NDI]
- effect on Notch1-DLL4 interaction [1]: significantly disrupted Notch1-DLL4 interaction
- effect on Evans blue dye content [2, 4]: significantly attenuated these effects, reducing both lung water content and Evans blue dye content
- Evans blue dye, EBD/dry lung tissue (Figure 6L) ([2]; DLL4^+ neutrophils + CLP): 94.3739 nanograms EBD per milligram of dry lung tissue and 81.6499 nanograms EBD per milligram of dry lung tissue and 102.841 nanograms EBD per milligram of dry lung tissue and 95.8364 nanograms EBD per milligram of dry lung tissue and 67.7799 nanograms EBD per milligram of dry lung tissue and 56.8397 nanograms EBD per milligram of dry lung tissue and 66.2061 nanograms EBD per milligram of dry lung tissue and 49.7845 nanograms EBD per milligram of dry lung tissue and 71.2396 nanograms EBD per milligram of dry lung tissue
- Evans blue dye, EBD/dry lung tissue (Figure 6L) ([2]; DLL4^– neutrophils + CLP): 62.3234 nanograms EBD per milligram of dry lung tissue and 74.8524 nanograms EBD per milligram of dry lung tissue and 79.6398 nanograms EBD per milligram of dry lung tissue and 73.406 nanograms EBD per milligram of dry lung tissue and 63.9328 nanograms EBD per milligram of dry lung tissue and 50.0167 nanograms EBD per milligram of dry lung tissue and 66.1099 nanograms EBD per milligram of dry lung tissue and 61.0318 nanograms EBD per milligram of dry lung tissue and 57.5122 nanograms EBD per milligram of dry lung tissue
- effect on lung KC mRNA [3, 4]: significantly decreased the mRNA expression of TNF-α, IL-6, and KC in lung tissues
- lung KC mRNA (Figure 6H) ([3]; DLL4^+ neutrophils + CLP): 5.903 fold change and 0.6661 fold change and 4.862 fold change and 4.727 fold change and 4.686 fold change and 3.906 fold change and 2.6276 fold change and 0.3013 fold change and 7.635 fold change and 2.927 fold change and 2.999 fold change and 5.493 fold change and 8.856 fold change and 7.751 fold change and 5.829 fold change and 6.917 fold change
- lung KC mRNA (Figure 6H) ([3]; DLL4^– neutrophils + CLP): 5.187 fold change and 6.094 fold change and 6.9598 fold change and 7.18 fold change and 9.417 fold change and 3.542 fold change and 4.905 fold change and 5.1155 fold change and 3.48 fold change and 3.364 fold change
